According to publication PMC117120 (BMC Biochemistry, 2002):
Residue numbers refer to the chain shown, from its start.

Columns and labels:
[1] = target: T1, V141A mutant mouse 5-HT3ASR (Mus musculus, UniProt P23979, V142A); test: [^3H]granisetron saturation binding, V141A receptor; conditions: ± SE
T1 sequence (P23979 24-483 isoform P23979-2 V142A): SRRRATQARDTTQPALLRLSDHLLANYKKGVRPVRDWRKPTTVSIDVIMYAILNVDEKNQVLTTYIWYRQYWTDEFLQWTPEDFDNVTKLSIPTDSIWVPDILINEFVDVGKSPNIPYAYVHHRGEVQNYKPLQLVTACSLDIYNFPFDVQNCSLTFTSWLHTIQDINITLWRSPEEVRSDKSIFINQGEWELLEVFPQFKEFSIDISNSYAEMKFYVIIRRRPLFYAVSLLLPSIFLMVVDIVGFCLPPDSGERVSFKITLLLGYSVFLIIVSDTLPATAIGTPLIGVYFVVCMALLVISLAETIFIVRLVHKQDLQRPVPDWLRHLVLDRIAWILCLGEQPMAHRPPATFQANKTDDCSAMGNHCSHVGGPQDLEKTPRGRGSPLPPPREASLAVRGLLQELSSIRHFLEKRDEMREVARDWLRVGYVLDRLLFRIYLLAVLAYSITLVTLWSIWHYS

[2] = target: T2, Y142A mutant mouse 5-HT3ASR (Mus musculus, UniProt P23979, Y143A); test: [^3H]granisetron saturation binding, Y142A receptor; conditions: ± SE
T2 sequence (P23979 24-483 isoform P23979-2 Y143A): T1 sequence (P23979 24-483 isoform P23979-2 V142A) with A119V, Y120A

[3] = target: T3, G147A mutant mouse 5-HT3ASR (Mus musculus, UniProt P23979, G148A); test: [^3H]granisetron saturation binding, G147A receptor
T3 sequence (P23979 24-483 isoform P23979-2 G148A): T1 sequence (P23979 24-483 isoform P23979-2 V142A) with A119V, G125A

[4] = target: T4, N151A mutant mouse 5-HT3ASR (Mus musculus, UniProt P23979, N152A); test: [^3H]granisetron saturation binding, N151A receptor; conditions: ± SE
T4 sequence (P23979 24-483 isoform P23979-2 N152A): T1 sequence (P23979 24-483 isoform P23979-2 V142A) with A119V, N129A

[5] = target: T5, Y152A mutant mouse 5-HT3ASR (Mus musculus, UniProt P23979, Y153A); test: [^3H]granisetron saturation binding, Y152A receptor; conditions: ± SE
T5 sequence (P23979 24-483 isoform P23979-2 Y153A): T1 sequence (P23979 24-483 isoform P23979-2 V142A) with A119V, Y130A

[6] = test system: Q150A – K153A mutant mouse 5-HT3ASRs; test: [^3H]granisetron saturation binding, Q150A – K153A receptors

CN1C2CCCC1CC(NC(=O)c1nn(C)c3ccccc13)C2 (stereo not drawn) [[^3H]granisetron]
Bmax [1]: 0.32 ± .04 pmol/mg protein | Hill coefficient (n) [1]: 1.3 ± 0.22 | Bmax [2]: 0.97 ± .14 pmol/mg protein | Hill coefficient (n) [2]: 1.6 ± 0.27 | binding of [^3H]granisetron [3]: No detectable binding | Bmax [4]: 4.9 ± 1.1 pmol/mg protein | Hill coefficient (n) [4]: 1.66 ± 0.16 | Bmax [5]: 0.59 ± .10 pmol/mg protein | decrease in binding affinity (increased Kd), mutant vs wildtype [6]: 6 – 8 fold
